Data taken from article PMC11841048 (ACS Infectious Diseases, 2025).
Several values for one entry are separate records, joined by “and”; a condition that tells them apart may be missing. Equal values may be shown once. Read-outs that look alike come from different tables or passages of the source.

Tests used:
[1] = biological target: T1, BaIMPDH (wild-type) (Bacillus anthracis, UniProt A0A6L8P2U9); test: biochemical; details: Ki,app
[2] = biological target: T1, BaIMPDH (wild-type); test: biochemical; assay type: biochemical
[3] = biological target: T1, BaIMPDH (wild-type); test: biochemical
[4] = biological target: BaIMPDH (Bacillus anthracis, UniProt A0A6L8P2U9); test: biochemical; assay type: biochemical
[5] = tested on: BaIMPDH (wild-type); details: cited from earlier work
[6] = biological target: T1, BaIMPDH (wild-type); assay type: biochemical
[7] = biological target: CjIMPDH (Campylobacter jejuni, UniProt Q0P9J4, DEL92-194/T195G); test: biochemical; details: Ki,app
[8] = biological target: CpIMPDH (Cryptosporidium parvum, UniProt Q8T6T2); test: biochemical
[9] = biological target: SpIMPDH (Streptococcus pyogenes, UniProt P0C0H6); test: biochemical
[10] = biological target: SaIMPDH (Staphylococcus aureus, UniProt Q6GJQ7); test: biochemical
[11] = tested on: Ba-, Cj-, and ClpIMPDH; assay type: biochemical
[12] = biological target: T1, BaIMPDH (wild-type); test: biochemical; remark: listed apart in the source
[13] = k–9/k9, inhibitor dissociation constant from E-XMP*
[14] = k–8/k8, inhibitor dissociation constant from E·IMP

T1 sequence (A0A6L8P2U9 221-487, added parts left off): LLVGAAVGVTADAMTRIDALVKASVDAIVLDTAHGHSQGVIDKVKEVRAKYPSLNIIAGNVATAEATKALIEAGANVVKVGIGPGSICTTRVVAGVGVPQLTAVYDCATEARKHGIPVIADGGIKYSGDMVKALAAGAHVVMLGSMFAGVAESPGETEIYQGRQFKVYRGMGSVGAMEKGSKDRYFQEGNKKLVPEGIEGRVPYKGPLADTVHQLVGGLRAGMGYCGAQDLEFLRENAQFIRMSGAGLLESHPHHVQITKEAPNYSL
Sequence of BaIMPDH (A0A6L8P2U9 221-487, added parts left off): as above
Sequence of SaIMPDH (Q6GJQ7 whole entry): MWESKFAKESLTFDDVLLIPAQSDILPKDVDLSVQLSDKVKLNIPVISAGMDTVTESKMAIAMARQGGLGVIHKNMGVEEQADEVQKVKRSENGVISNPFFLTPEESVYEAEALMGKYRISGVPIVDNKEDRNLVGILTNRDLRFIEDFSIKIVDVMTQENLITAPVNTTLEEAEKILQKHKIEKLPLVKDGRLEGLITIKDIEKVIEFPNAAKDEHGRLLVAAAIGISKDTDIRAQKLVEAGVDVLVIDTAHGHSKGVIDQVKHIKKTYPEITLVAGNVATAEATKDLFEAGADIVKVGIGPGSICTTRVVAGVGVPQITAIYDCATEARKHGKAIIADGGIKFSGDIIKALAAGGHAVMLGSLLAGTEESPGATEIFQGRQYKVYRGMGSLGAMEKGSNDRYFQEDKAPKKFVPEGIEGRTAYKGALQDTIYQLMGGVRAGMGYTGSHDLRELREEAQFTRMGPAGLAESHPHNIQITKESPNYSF
Sequence of CpIMPDH (Q8T6T2 whole entry): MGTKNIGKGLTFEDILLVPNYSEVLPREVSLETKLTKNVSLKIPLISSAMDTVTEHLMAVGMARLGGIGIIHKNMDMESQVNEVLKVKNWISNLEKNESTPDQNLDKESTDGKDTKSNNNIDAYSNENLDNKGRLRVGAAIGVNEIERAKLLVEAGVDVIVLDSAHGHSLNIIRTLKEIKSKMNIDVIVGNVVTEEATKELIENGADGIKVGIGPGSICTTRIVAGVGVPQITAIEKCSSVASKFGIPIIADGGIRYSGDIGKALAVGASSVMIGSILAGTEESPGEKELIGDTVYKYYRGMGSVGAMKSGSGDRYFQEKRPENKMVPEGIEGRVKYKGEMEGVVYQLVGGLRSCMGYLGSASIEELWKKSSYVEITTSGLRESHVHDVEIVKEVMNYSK
Sequence of SpIMPDH (P0C0H6 whole entry): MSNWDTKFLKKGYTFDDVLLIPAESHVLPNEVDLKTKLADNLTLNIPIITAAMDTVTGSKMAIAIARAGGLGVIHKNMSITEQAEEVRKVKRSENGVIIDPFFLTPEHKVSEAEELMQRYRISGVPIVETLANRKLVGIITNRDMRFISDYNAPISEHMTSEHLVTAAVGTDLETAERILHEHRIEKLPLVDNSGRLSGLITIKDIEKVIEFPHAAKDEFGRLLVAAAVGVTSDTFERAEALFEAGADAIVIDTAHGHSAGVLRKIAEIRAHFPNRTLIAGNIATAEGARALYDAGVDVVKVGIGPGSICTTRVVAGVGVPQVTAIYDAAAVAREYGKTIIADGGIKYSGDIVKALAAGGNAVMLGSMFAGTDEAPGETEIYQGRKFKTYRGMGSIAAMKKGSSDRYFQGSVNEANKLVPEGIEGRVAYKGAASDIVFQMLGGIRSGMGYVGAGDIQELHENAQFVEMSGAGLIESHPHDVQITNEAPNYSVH

For `C[C@@H](Oc1cc[n+]([O-])c2ccccc12)c1cn(-c2ccc(Cl)cc2)nn1` [A110], the Ki [1] was 0.081 µM and 0.059 µM, the Kd ([2]; k–8/k8) was 1.7 µM and the Kd ([2]; k–9/k9) was 0.085 µM. The kon at 6 µM ([2]; read-out: k8 (inhibitor association with E·IMP)) was 9.33e+06 M⁻¹ s⁻¹, the kon ([2]; read-out: k9 (inhibitor association with E-XMP*)) was 3.52e+06 M⁻¹ s⁻¹ and the koff ([2]; read-out: k–8 (inhibitor dissociation from E·IMP·I)) was 15.6 s⁻¹. For the same compound, the koff ([2]; read-out: k–9 (inhibitor dissociation from E-XMP*·I)) was 0.3 s⁻¹ and the Kd [3, 13] was 0.065 µM.
In the case of `Nc1ncnc2c1ncn2[C@@H]1O[C@H](COP(=O)(O)OP(=O)(O)O)[C@@H](O)[C@H]1O` [ADP], the Ki ([4]; read-out: Ki,app) is reported as 6200 µM.
In the case of `O=C(Cn1c(-c2ccccn2)nc2ccccc21)Nc1ccc2ccccc2c1` [C91], the k-9 [3] is reported as 0.0976, the Kd [3, 14] is reported as 0.28 µM and the Kd [3, 13] is reported as 0.11 µM. For the same compound, the koff ([3]; read-out: k-8) was 0.239 s⁻¹, the koff ([3]; read-out: k-9) was 0.0844 s⁻¹ and the “fold more potent inhibitor of BaIMPDH” value [5] was 10 fold.
For `Cn1nc(CC(=O)Nc2ccc3oc4c(c3c2)CCCC4)c2ccccc2c1=O` [D67], the Ki [1] was 0.698 µM and 0.671 µM, the Kd [3, 14] was 1.1 µM and the Kd [3, 13] was 0.42 µM.
In the case of `NC(=O)C1=CN([C@@H]2O[C@H](COP(=O)(O)OP(=O)(O)OC[C@H]3O[C@@H](n4cnc5c(N)ncnc54)[C@H](O)[C@@H]3O)[C@@H](O)[C@H]2O)C=CC1` [NADH], the “k4 (NADH release)” value [2] is reported as greater than 446 s^–1, the “k–4 (NADH association)” value [2] is reported as greater than 3.8 μM^–1 s^–1 and the Kd ([2]; read-out: k4/k–4) is reported as 120 µM.
For `NC(=O)c1ccc[n+]([C@@H]2O[C@H](COP(=O)([O-])OP(=O)(O)OC[C@H]3O[C@@H](n4cnc5c(N)ncnc54)[C@H](O)[C@@H]3O)[C@@H](O)[C@H]2O)c1` [NAD^+], the “k2 (NAD^+ association with E·IMP)” value [2] was 0.0309 μM^–1 s^–1, the “k7 (NAD^+ association with E-XMP*)” value [2] was 0.00398 μM^–1 s^–1 and the “k–2 (NAD^+ dissociation from E·IMP·NAD^+)” value [2] was 11.7 s^–1. For the same compound, the “k–7 (NAD^+ dissociation from E-XMP*·NAD^+)” value [2] was 31.8 s^–1, the Kd ([2]; read-out: k–2/k2) was 380 µM and the Kd ([2]; read-out: k–7/k7) was 8000 µM. The “apparent Michaelis constant for NAD+, KmB” value [6] was 683 [ 601 , 779 ] µM, the Ki ([6]; read-out: Ki(NAD^+)) was 9600 ± 2100 µM and the Km ([6]; read-out: Km(NAD^+)) was 590 ± 100 µM.
In the case of `C/C(=N\O)c1cccc(C(C)(C)NC(=O)Nc2ccc(Cl)c(C(N)=O)c2)c1` [P32], the Ki [1] is reported as 0.052 µM and 0.047 µM, the Ki [7] is reported as 0.095 ± 0.005 µM and the Ki [8] is reported as 0.005 ± 0.002 µM. For the same compound, the Ki [9] was 0.164 ± 0.01 µM and the Ki [10] was 0.023 ± 0.01 µM.
`C/C(=N\OCCN)c1cccc(C(C)(C)NC(=O)Nc2ccc(Cl)c([N+](=O)[O-])c2)c1` [P131] showed a Ki [1] of 0.094 µM, a Kd [3, 14] of 0.11 µM and a Kd [3, 13] of 0.061 µM.
In the case of `C=C(C)c1cccc(C(C)(C)NC(=O)Nc2ccc(Cl)c(NC3OCC(O)C(O)C3O)c2)c1` (stereo not shown) [P176], the Ki [1] is reported as 0.016 µM and the Ki [7] is reported as 0.177 µM and 0.077 µM.
In the case of `C=C(C)c1cccc(C(C)(C)NC(=O)Nc2ccc(Cl)c(OC3OC(CO)C(O)C3O)c2)c1` (stereo not shown) [P178], the Ki [1] is reported as 0.012 µM, the Ki [7] is reported as 0.097 µM and the “difference in affinity across the three enzymes” value [11] is reported as greater than 5 fold.
In the case of `C/C(=N\O)c1cccc(C(C)(C)NC(=O)Nc2ccc(Cl)c(-c3nc(C(F)(F)F)cs3)c2)c1` [P182], the Ki [1] is reported as 0.008 µM and the Ki [7] is reported as 0.032 ± 0.006 µM.
In the case of `CC(C)(NC(=O)Nc1ccc(Cl)cc1)c1cccc(/C(N)=N/O)c1` [P200], the Ki [1] is reported as 0.016 µM, the Ki [7] is reported as 0.145 ± 0.04 µM and the “difference in affinity across the three enzymes” value [11] is reported as greater than 5 fold.
`C=C(C)c1cccc(C(C)(C)NC(=O)Nc2ccc(Cl)c(NC3OC[C@@H](O)[C@H](O)[C@@H]3O)c2)c1` (stereo partly shown) [P221] gave a Ki [1] of 0.02 µM and a Ki [7] of 0.046 µM.
With `C=C(C)c1cccc(C(C)(C)NC(=O)Nc2ccc(Cl)c(OCC(=O)O)c2)c1` [P225] the Ki [1] was 0.004 µM and 0.00043 µM and the Ki [7] was 0.02 ± 0.01 µM.
For `C[C@H](Oc1cccc2ccccc12)C(=O)Nc1ccc2oc(-c3ccncc3)nc2c1` [Q21], the Ki [1] was 0.063 µM and 0.023 µM, the “preference for E-XMP* over E·IMP” value [3] was “same affinity for both enzyme forms” and the Kd [3, 14] was 0.038 µM. It also gave a Kd [3, 13] of 0.043 µM.
For `O=c1[nH]c(=O)c2ncn([C@@H]3O[C@H](COP(=O)(O)O)[C@@H](O)[C@H]3O)c2[nH]1` [XMP, xanthosine 5′-monophosphate], the Kd [12] was 404 µM.
`NC(=O)c1csc([C@@H]2O[C@H](CO)[C@@H](O)[C@H]2O)n1` [tiazofurin] showed a Ki [4] of 620 µM.
